Entries after “also recorded” stand apart in the source; their conditions may differ. Positions of bridges follow the written chain, without caps; N, C: chain ends. Residues, ends and D or L forms follow the SMILES beside them.
How the values were obtained:
hGalR1 = target: T1, hGalR1 (Homo sapiens, UniProt P47211); experiment: SRE-Luc receptor activation assay, hGalR1; type: cell-based; details: for hGalR1 EC50: HEK293 cells transfected with hGalR1, Gqi, SRE-Luc, 6 h treatment, full-dose; for hGalR1 Emax: Relative to hGAL Emax
T1 sequence (P47211 1-349): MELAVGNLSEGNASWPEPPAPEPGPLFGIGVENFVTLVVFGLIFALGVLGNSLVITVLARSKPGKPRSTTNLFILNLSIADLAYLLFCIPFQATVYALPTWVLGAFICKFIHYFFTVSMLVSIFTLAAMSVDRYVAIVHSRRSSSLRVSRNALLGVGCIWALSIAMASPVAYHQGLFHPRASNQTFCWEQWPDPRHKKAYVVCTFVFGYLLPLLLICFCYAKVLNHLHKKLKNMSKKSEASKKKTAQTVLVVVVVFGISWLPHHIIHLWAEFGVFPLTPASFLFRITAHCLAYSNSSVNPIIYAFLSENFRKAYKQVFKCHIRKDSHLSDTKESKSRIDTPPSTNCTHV

hGalR2 = target: T2, hGalR2 (Homo sapiens, UniProt O43603); experiment: SRE-Luc receptor activation assay, hGalR2; type: cell-based; details: for hGalR2 Emax: Relative to hSPX Emax; for EC50: HEK293 cells transfected with hGalR2, Gqi, SRE-Luc, 6 h treatment, full-dose, read-out: hGalR2 EC50
T2 construct: host or cells: HEK293
T2 sequence (O43603 1-387): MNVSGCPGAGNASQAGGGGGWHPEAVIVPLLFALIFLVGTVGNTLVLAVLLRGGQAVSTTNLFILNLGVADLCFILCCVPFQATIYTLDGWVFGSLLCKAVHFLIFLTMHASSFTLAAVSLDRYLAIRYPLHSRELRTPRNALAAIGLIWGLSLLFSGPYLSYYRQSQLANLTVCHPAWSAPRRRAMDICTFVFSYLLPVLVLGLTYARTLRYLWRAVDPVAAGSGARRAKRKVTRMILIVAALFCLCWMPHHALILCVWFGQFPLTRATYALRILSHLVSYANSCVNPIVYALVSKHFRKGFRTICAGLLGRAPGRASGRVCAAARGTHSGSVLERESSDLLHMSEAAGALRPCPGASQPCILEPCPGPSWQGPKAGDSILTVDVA

hGalR3 = target: T3, hGalR3 (Homo sapiens, UniProt O60755); experiment: SRE-Luc receptor activation assay, hGalR3; type: cell-based; details: for hGalR3 Emax: Relative to hSPX Emax; for EC50: HEK293 cells transfected with hGalR3, Gqi, SRE-Luc, 6 h treatment, full-dose, read-out: hGalR3 EC50
T3 construct: host or cells: HEK293
T3 sequence (O60755 1-368): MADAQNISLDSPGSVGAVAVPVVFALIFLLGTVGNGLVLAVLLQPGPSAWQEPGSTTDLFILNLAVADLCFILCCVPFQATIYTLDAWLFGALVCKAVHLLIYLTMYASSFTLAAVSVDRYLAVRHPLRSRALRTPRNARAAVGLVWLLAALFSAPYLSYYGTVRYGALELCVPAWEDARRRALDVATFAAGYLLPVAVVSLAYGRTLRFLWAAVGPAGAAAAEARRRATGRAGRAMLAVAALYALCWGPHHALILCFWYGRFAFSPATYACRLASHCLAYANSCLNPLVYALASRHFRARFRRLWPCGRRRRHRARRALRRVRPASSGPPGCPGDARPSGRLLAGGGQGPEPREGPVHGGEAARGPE

[1] = In vitro serum stability assay (RP-HPLC); type: in vitro ADME, rat; details: rat
Protocol: The serum stability of CSAs was tested using an in vitro assay followed by reverse-phase high-performance liquid chromatography (RP-HPLC) analysis (FIGS. 33-38).
750 μL RPMI medium 1640 (Thermo Fisher Scientific) was mixed with […] rat serum, and incubated at 37° C. for 15 min before adding peptide. The peptide dissolved in water was added into the reaction buffer to make a final concentration of 100 μg/mL. At each time point (5, 15, 30, 60, 120, 240, and 480 min), 100 μL reaction solution were taken, and mixed with 200 μL 6% trichloroacetic acid (TCA, Sigma-Aldrich). The resulting cloudy solution was cooled at 4° C. for 15 min, and centrifuged for 10 mins at 13,000 rpm. The supernatant was then analyzed by RP-HPLC. The extent of intact peptide was calculated based on the peak area and was normalized using a control sample.

[2] = system: C57BL/6J mice with high-fat-diet (HFD) induced obesity; experiment: Body weight gain in high-fat-diet induced obesity mice, LH101 (Ac) vs hSPX, 18 day treatment; type: in vivo; details: for food intake: recorded every 3 days
Protocol: Female and male C57BL/6J mice weighing 22-25 g were purchased from the Laboratory Animal Services Center, The Chinese University of Hong Kong, Hong Kong. The animals were fed with rodent diet with 60 kcal % fat (Research Diets, New Brunswick, N.J.) ad libitum with free access to water and were housed in rooms maintained at 22±1° C. with a 12 h light/dark cycle (lights on 6:00-18:00). Animals were constantly acclimated to the facility until the body weight reached no less than 30 g. Then all the diet-induced obese mice were divided into 3 groups randomly for the drug treatment. Mice body weight was daily monitored, and the food intake amount was recorded every 3 days. The Animal Ethics Committee of Hong Kong Baptist University approved all experimental protocols in accordance with “Institutional Guidelines and Animal Ordinance” from Department of Health, Hong Kong Special Administrative Region.

[3] = system: male mice (C57BL/6J) with diet-induced obesity (DIO); experiment: Body weight gain in diet-induced obesity mice, LH101, 14-days-treatment; type: in vivo; details: 25 μg/kg i.p., vs PBS controls
Protocol: Male mice (C57BL/6J) weighing about 22-25 g were purchased from the Laboratory Animal Services Center, The Chinese University of Hong Kong, Hong Kong. The animals were fed with a high fat diet (Research Diets, New Brunswick, N.J.) ad libitum with free access to water and were housed in rooms maintained at 22±1° C. with a 12 h light/dark cycle (lights on 6:00-18:00). Animals were constantly acclimated to the facility until the body weight reached 45-50 g. Then all the diet induced obese mice were divided into 2 groups randomly for the drug treatment. The Animal Ethics Committees of Hong Kong Baptist University, approved all experimental protocols, in accordance with “Institutional Guidelines and Animal Ordinance” from Department of Health, Hong Kong Special Administrative Region.

SMILES | hGalR1 EC50 (hGalR1) | hGalR1 Emax (hGalR1) | hGalR2 Emax (hGalR2) | hGalR3 Emax (hGalR3) | half-life at 100 μg/mL ([1]; serum, serum half-life (t1/2)) [h] | area-under-curve (AUC) of body weight gain curve ([2]; 18 day treatment) | time after which weight gain started to wane ([2]; 18 day treatment) [days] | food intake [2] | EC50 (hGalR2) [nM] | EC50 (hGalR3) [nM] | fold enhancement of half-life [1] [fold] | remaining at 8 h, 100 μg/mL ([1]; serum) [%] | body weight gain [3] | half-life at 100 μg/mL ([1]; serum, half-life time in serum) [h] | body weight gain ([2]; 25 μg/kg i.p., 18 day treatment, vs PBS controls)
CSCC[C@H](NC(=O)[C@H](C)NC(=O)[C@H](CCC(N)=O)NC(=O)[C@@H]1CCCN1C(=O)[C@@H](NC(=O)[C@H](Cc1c[nH]c2ccccc12)NC(=O)[C@@H](N)CC(N)=O)[C@@H](C)O)C(=O)N[C@@H](CC(C)C)C(=O)N[C@@H](Cc1ccc(O)cc1)C(=O)N[C@@H](CC(C)C)C(=O)N[C@@H](CCCCN)C(=O)NCC(=O)N[C@@H](C)C(=O)N[C@@H](CCC(N)=O)C(N)=O [hSPX, reference compound] | N.M. | N.M. | 1.00 | 1.00 | 1.11 | significant body weight control efficacy | 10 | inhibitory effects on food consumption |  |  |  |  |  |  | 
CSCC[C@@H]1NC(=O)[C@H](C)NC(=O)[C@H](CCC(N)=O)NC(=O)[C@@H]2CCCN2C(=O)[C@H]([C@@H](C)O)NC(=O)[C@H](Cc2c[nH]c3ccccc23)NC(=O)[C@@H](N)CSSC[C@@H](C(=O)N[C@@H](CCC(N)=O)C(N)=O)NC(=O)CNC(=O)[C@H](CCCCN)NC(=O)[C@H](CC(C)C)NC(=O)[C@H](Cc2ccc(O)cc2)NC(=O)[C@H](CC(C)C)NC1=O [LH101] (H-CWTPQAMLYLKGCQ-NH2; disulfide 1-13) | N.M. | N.M. | 1.09 | 1.04 | 5.93 |  |  |  | 1190 | 1560 | 5.3 | 46 | significantly suppressed the body weight gain; also recorded: suppressed mice body weight gain; also recorded: does inhibit body weight gain |  | 
CSCC[C@@H]1NC(=O)[C@H](C)NC(=O)[C@H](CCC(N)=O)NC(=O)[C@@H]2CCCN2C(=O)[C@H]([C@@H](C)O)NC(=O)[C@H](Cc2c[nH]c3ccccc23)NC(=O)[C@@H](NC(C)=O)CSSC[C@@H](C(=O)N[C@@H](CCC(N)=O)C(N)=O)NC(=O)CNC(=O)[C@H](CCCCN)NC(=O)[C@H](CC(C)C)NC(=O)[C@H](Cc2ccc(O)cc2)NC(=O)[C@H](CC(C)C)NC1=O [LH101 (Ac)] (Ac-CWTPQAMLYLKGCQ-NH2; disulfide 1-13) | N.M. | N.M. | 0.97 | 1.00 | 32.9 | significant body weight control efficacy | 8 | inhibitory effects on food consumption | 380 | 390 | 29.1 |  |  | > 24 | significantly suppressed the body weight gain
